This is an account of results in patent US12139520B2 (priority 2020, dated 2024).

Numbered stars: 1 amine (or outer) side, 2 acyl side, 3 side chain; on linkers, the order of the positions; unused ones are H or OH. Bridge positions count the residues as written; N and C are the ends. Peptide text beside a SMILES is read from it. * marks the point of attachment. C20 diacid = O=C(O)CCCCCCCCCCCCCCCCCCC(=O)*; γGlu = O=C(O)[C@H](CCC(=O)[*:2])N[*:1]

One may read the EC50 as the concentration that produces a half-maximal response.

This test concerns the target T1, hAMY3 receptor (Homo sapiens, UniProt O60896+P30988).
T1 sequence (P30988 25-474): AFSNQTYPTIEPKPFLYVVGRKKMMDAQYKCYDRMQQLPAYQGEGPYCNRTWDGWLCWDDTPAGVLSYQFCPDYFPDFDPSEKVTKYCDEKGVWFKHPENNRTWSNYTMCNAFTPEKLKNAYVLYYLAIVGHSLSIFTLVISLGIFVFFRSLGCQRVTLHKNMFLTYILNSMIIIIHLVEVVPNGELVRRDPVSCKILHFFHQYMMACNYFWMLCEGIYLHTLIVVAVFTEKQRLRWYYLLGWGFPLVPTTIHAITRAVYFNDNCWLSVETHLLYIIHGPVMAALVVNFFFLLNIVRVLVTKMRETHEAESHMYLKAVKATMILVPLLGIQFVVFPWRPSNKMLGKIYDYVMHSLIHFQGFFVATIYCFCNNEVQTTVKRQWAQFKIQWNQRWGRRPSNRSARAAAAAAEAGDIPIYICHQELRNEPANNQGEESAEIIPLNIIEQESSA
T1 sequence (O60896 24-148 partner): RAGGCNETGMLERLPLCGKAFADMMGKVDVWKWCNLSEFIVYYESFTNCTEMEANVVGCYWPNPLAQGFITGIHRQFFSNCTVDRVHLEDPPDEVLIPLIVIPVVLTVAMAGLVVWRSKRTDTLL
As to the kind of experiment: cAMP assay for in vitro receptor activation, hAMY3-R. Format: cell-based. To be noted: cAMP assay, hAMY3 receptor; read-out: hAMY3R EC50. In short, it runs like this:
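Thawed cells from a sub-cloned monoclonal hAMY3-overexpressing line are plated in DPBS containing 0.05% casein and 0.5 mM IBMX. Test compounds are added immediately at graded doses for 30 min at room temperature. Reagents for cAMP detection are then added, and TR-FRET is recorded after one hour.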
For orientation: Cyclic AMP is a second messenger, typically raised through Gs and lowered through Gi signalling.
On to `CC[C@H](C)[C@H](NC(=O)[C@H](CCC(N)=O)NC(=O)[C@H](Cc1c[nH]cn1)NC(=O)[C@H](C)NC(=O)[C@H](CC(C)C)NC(=O)[C@H](CCCNC(=N)N)NC(=O)[C@H](CCC(N)=O)NC(=O)[C@@H](NC(=O)[C@@H](NC(=O)[C@@H]1CSSC[C@H](NC(=O)CN)C(=O)N[C@@H](CCCNC(=N)N)C(=O)N[C@@H](Cc2ccccc2)C(=O)NCC(=O)N[C@@H]([C@@H](C)O)C(=O)N1)[C@@H](C)O)C(C)C)C(=O)N[C@@H](Cc1ccc(O)cc1)C(=O)N[C@@H](CCC(N)=O)C(=O)N[C@@H](Cc1ccccc1)C(=O)N[C@H](C(=O)N[C@@H](CC(=O)O)C(=O)N[C@@H](CCCCN)C(=O)N[C@@H](CC(=O)O)C(=O)N[C@@H](CCCCN)C(=O)N[C@@H](CC(=O)O)C(=O)N[C@@H](CC(N)=O)C(=O)N[C@H](C(=O)N[C@@H](C)C(=O)N1CCC[C@H]1C(=O)N[C@@H](CCCNC(=N)N)C(=O)N[C@H](C(=O)N[C@@H](CCCCN)C(=O)N[C@H](C(=O)N[C@@H](CO)C(=O)N1CCC[C@H]1C(=O)N[C@@H](CC(N)=O)C(=O)NCC(=O)N[C@@H](Cc1ccc(O)cc1)C(N)=O)[C@@H](C)CC)[C@@H](C)O)C(C)C)[C@@H](C)O` [compound 371] (H-GCRFGTCTVQRLAHQIYQFTDKDKDNVAPRTKISPNGY-NH2; disulfide 2-7; N-terminus assumed), for which the EC50 is 0.019 nM.
The result for `CC[C@H](C)[C@H](NC(=O)[C@H](CCC(N)=O)NC(=O)[C@H](CC(N)=O)NC(=O)[C@H](C)NC(=O)[C@H](CC(C)C)NC(=O)[C@H](CCCNC(=N)N)NC(=O)[C@H](CCC(N)=O)NC(=O)[C@@H](NC(=O)[C@@H](NC(=O)[C@@H]1CSSC[C@H](NC(=O)CNC(=O)CC[C@H](NC(=O)CCCCCCCCCCCCCCCCCCC(=O)O)C(=O)O)C(=O)N[C@@H](CCCNC(=N)N)C(=O)N[C@@H](Cc2ccccc2)C(=O)NCC(=O)N[C@@H]([C@@H](C)O)C(=O)N1)[C@@H](C)O)C(C)C)C(=O)N[C@@H](Cc1ccc(O)cc1)C(=O)N[C@@H](CCC(N)=O)C(=O)N[C@@H](Cc1ccccc1)C(=O)N[C@H](C(=O)N[C@@H](CC(=O)O)C(=O)N[C@@H](CCCCN)C(=O)N[C@@H](CC(=O)O)C(=O)N[C@@H](CCCCN)C(=O)N[C@@H](CC(=O)O)C(=O)N[C@@H](CC(N)=O)C(=O)N[C@H](C(=O)N[C@@H](C)C(=O)N1CCC[C@H]1C(=O)N[C@@H](CCCNC(=N)N)C(=O)N[C@H](C(=O)N[C@@H](CC(N)=O)C(=O)N[C@H](C(=O)NCC(=O)N1CCC[C@H]1C(=O)N[C@@H](CCC(N)=O)C(=O)NCC(=O)N[C@@H](Cc1ccc(O)cc1)C(N)=O)C(C)C)[C@@H](C)O)C(C)C)[C@@H](C)O` [compound 372] ({C20 diacid-γGlu}-GCRFGTCTVQRLANQIYQFTDKDKDNVAPRTNVGPQGY-NH2; disulfide 2-7) reads 0.02 nM; that for `CC[C@H](C)[C@H](NC(=O)[C@H](CCC(N)=O)NC(=O)[C@H](Cc1c[nH]cn1)NC(=O)[C@H](C)NC(=O)[C@H](CC(C)C)NC(=O)[C@H](CCCNC(=N)N)NC(=O)[C@H](CCC(N)=O)NC(=O)[C@@H](NC(=O)[C@@H](NC(=O)[C@@H]1CSSC[C@H](NC(=O)CN)C(=O)N[C@@H](CCCNC(=N)N)C(=O)N[C@@H](Cc2ccccc2)C(=O)NCC(=O)N[C@@H]([C@@H](C)O)C(=O)N1)[C@@H](C)O)C(C)C)C(=O)N[C@@H](Cc1ccc(O)cc1)C(=O)N[C@@H](CCC(N)=O)C(=O)N[C@@H](Cc1ccccc1)C(=O)N[C@H](C(=O)N[C@@H](CC(=O)O)C(=O)N[C@@H](CCCCN)C(=O)N[C@@H](CC(=O)O)C(=O)N[C@@H](CCCCN)C(=O)N[C@@H](CC(=O)O)C(=O)N[C@@H](CC(N)=O)C(=O)N[C@H](C(=O)N[C@@H](C)C(=O)N1CCC[C@H]1C(=O)N[C@@H](CCCNC(=N)N)C(=O)N[C@@H](CO)C(=O)N[C@@H](CCCCN)C(=O)N[C@H](C(=O)NCC(=O)N1CCC[C@H]1C(=O)N[C@@H](CCC(N)=O)C(=O)NCC(=O)N[C@@H](Cc1ccc(O)cc1)C(N)=O)C(C)C)C(C)C)[C@@H](C)O` [compound 375] (H-GCRFGTCTVQRLAHQIYQFTDKDKDNVAPRSKVGPQGY-NH2; disulfide 2-7; N-terminus assumed), 0.022 nM; that for `CC(C)C[C@H](NC(=O)[C@H](CCCNC(=N)N)NC(=O)[C@H](CCC(N)=O)NC(=O)[C@@H](NC(=O)[C@@H](NC(=O)[C@@H]1CSSC[C@H](NC(=O)CN)C(=O)N[C@@H](CCCNC(=N)N)C(=O)N[C@@H](Cc2ccccc2)C(=O)N[C@@H](C)C(=O)N[C@@H]([C@@H](C)O)C(=O)N1)[C@@H](C)O)C(C)C)C(=O)N[C@@H](C)C(=O)N[C@@H](Cc1c[nH]cn1)C(=O)N[C@@H](Cc1ccccc1)C(=O)N[C@@H](CC(C)C)C(=O)N[C@@H](Cc1ccc(O)cc1)C(=O)N[C@@H](CCC(N)=O)C(=O)N[C@@H](Cc1ccccc1)C(=O)N[C@H](C(=O)N[C@@H](CC(=O)O)C(=O)N[C@@H](CCCCN)C(=O)N[C@@H](CC(=O)O)C(=O)N[C@@H](CCCCN)C(=O)N[C@@H](CC(=O)O)C(=O)N[C@@H](CC(N)=O)C(=O)N[C@H](C(=O)N[C@@H](C)C(=O)N1CCC[C@H]1C(=O)N[C@@H](CCCNC(=N)N)C(=O)N[C@H](C(=O)N[C@@H](CCCCN)C(=O)N[C@H](C(=O)NCC(=O)N1CCC[C@H]1C(=O)N[C@@H](CCC(N)=O)C(=O)NCC(=O)N[C@@H](Cc1ccc(O)cc1)C(N)=O)C(C)C)[C@@H](C)O)C(C)C)[C@@H](C)O` [compound 377] (H-GCRFATCTVQRLAHFLYQFTDKDKDNVAPRTKVGPQGY-NH2; disulfide 2-7; N-terminus assumed), 0.024 nM.
The result for `CC[C@H](C)[C@H](NC(=O)[C@H](CCC(N)=O)NC(=O)[C@H](Cc1c[nH]cn1)NC(=O)[C@H](C)NC(=O)[C@H](CC(C)C)NC(=O)[C@H](CCCNC(=N)N)NC(=O)[C@H](CCC(N)=O)NC(=O)[C@@H](NC(=O)[C@@H](NC(=O)[C@@H]1CSSC[C@H](NC(=O)[C@H](CCCCN)NC(=O)CC[C@H](NC(=O)CCCCCCCCCCCCCCCCCCC(=O)O)C(=O)O)C(=O)N[C@@H](CC(N)=O)C(=O)N[C@@H](Cc2ccccc2)C(=O)N[C@@H](C)C(=O)N[C@@H]([C@@H](C)O)C(=O)N1)[C@@H](C)O)C(C)C)C(=O)N[C@@H](Cc1ccc(O)cc1)C(=O)N[C@@H](CCC(N)=O)C(=O)N[C@@H](Cc1ccccc1)C(=O)N[C@H](C(=O)N[C@@H](CC(=O)O)C(=O)N[C@@H](CCCCN)C(=O)N[C@@H](CC(=O)O)C(=O)N[C@@H](CCCCN)C(=O)N[C@@H](CC(=O)O)C(=O)N[C@@H](CC(N)=O)C(=O)N[C@H](C(=O)N[C@@H](C)C(=O)N1CCC[C@H]1C(=O)N[C@@H](CCCNC(=N)N)C(=O)N[C@H](C(=O)N[C@@H](CCCCN)C(=O)N[C@H](C(=O)NCC(=O)N[C@@H](CO)C(=O)N[C@@H](CC(N)=O)C(=O)NCC(=O)N[C@@H](Cc1ccc(O)cc1)C(N)=O)C(C)C)[C@@H](C)O)C(C)C)[C@@H](C)O` [compound 378] ({C20 diacid-γGlu}-KCNFATCTVQRLAHQIYQFTDKDKDNVAPRTKVGSNGY-NH2; disulfide 2-7) reads 0.027 nM; that for `CC[C@H](C)[C@H](NC(=O)[C@H](CC(N)=O)NC(=O)[C@@H](NC(=O)[C@H](CCCNC(=N)N)NC(=O)[C@@H]1CCCN1C(=O)[C@H](C)NC(=O)[C@@H](NC(=O)[C@H](CC(N)=O)NC(=O)[C@H](CC(=O)O)NC(=O)[C@H](CCCCN)NC(=O)[C@H](CC(=O)O)NC(=O)[C@H](CCCCN)NC(=O)[C@H](CC(=O)O)NC(=O)[C@@H](NC(=O)[C@H](Cc1ccccc1)NC(=O)[C@H](CCC(N)=O)NC(=O)[C@H](Cc1ccc(O)cc1)NC(=O)[C@@H](NC(=O)[C@H](CCC(N)=O)NC(=O)[C@H](Cc1c[nH]cn1)NC(=O)[C@H](C)NC(=O)[C@H](CC(C)C)NC(=O)[C@H](CCCNC(=N)N)NC(=O)[C@H](CCC(N)=O)NC(=O)[C@@H](NC(=O)[C@@H](NC(=O)[C@@H]1CSSC[C@H](NC(=O)CN)C(=O)N[C@@H](CCCNC(=N)N)C(=O)N[C@@H](Cc2ccccc2)C(=O)NCC(=O)N[C@@H]([C@@H](C)O)C(=O)N1)[C@@H](C)O)C(C)C)[C@@H](C)CC)[C@@H](C)O)C(C)C)[C@@H](C)O)C(=O)NCC(=O)N1CCC[C@H]1C(=O)N[C@@H](CCC(N)=O)C(=O)NCC(=O)N[C@@H](Cc1ccc(O)cc1)C(N)=O` [compound 379] (H-GCRFGTCTVQRLAHQIYQFTDKDKDNVAPRTNIGPQGY-NH2; disulfide 2-7), 0.029 nM.
